# Reference: US9351978B2, “Neurogenesis screening method and uses thereof” (Mead Johnson Nutrition Company, priority 2012, dated 2016)
# Tests used:
# hNSCs = test: neurogenesis of hNSCs, morphological changes under inverted fluorescent microscopy; type: cell-based, human; details: 72 hours
# Protocol: Briefly, hNSCs were purchased from Millipore, Bellerica, Mass., U.S.A., with genetic modification to constitutively express green fluorescent protein (“GFP”). The hNSCs were cultured on laminin coated plates as recommended by the manufacturer. Both laminin and DEME/F12 were obtained from Millipore. Laminin was diluted with DMEM/F12 to 20 μg/mL. 10 ml of diluted laminin solution was added to 10 cm tissue culture dish. Then the culture dish was incubated in a 37° C., 5% CO2 incubator overnight. Just before use, the laminin solution was aspirated and rinsed once with sterile DPBS solution. hNSCs were cultured in the ReNcell NSC maintenance medium (Millipore) supplied with 20 ng/mL bFGF and 20 ng/mL EGF in a 37° C., 5% CO2 incubator. Medium was exchanged with fresh medium containing bFGF and EGF every other day thereafter. The cells reached 80% confluence 2 to 3 days after this step.
# After hNSCs reach 80% confluence, hNSCs were ready for the differentiation experiment. Before seeding, a 96-well plate was freshly coated with 20 μg/mL laminin solution followed by a brief DPBS rinse as described above. Culture medium was removed carefully and hNSCs were dissociated within 3 ml Accutase (Millipore) in a 37° C., 5% CO2 incubator for 3 minutes. Then 5 ml of ReNcell NSC maintenance medium (Millipore) supplied with 20 ng/mL bFGF and 20 ng/mL EGF were added. The cell suspension was then transferred a sterile 15 ml conical tube and the cells were pelleted by the centrifugation at 300×g for 5 minutes. Supernatant was removed. 2 ml medium was then applied to the tube and hNSCs was resuspended thoroughly. The hNSCs were seeded on a 96-well plate at a density of 1×10^4 cell/ml (1000 cells/well, 100 μl/well).
# After attaching to the culture surface, the culture medium was switched to serum-free differentiation medium in the presence of cholesterol, or DHA, or no treatment. […]
# hADSCs = test: neurogenesis of hADSCs, neuronal morphology under phase contrast microscopy; type: cell-based, human
# Protocol: hADSCs were purchased from Invitrogen, also known as Life Technologies, of Carlsbad, Calif., U.S.A., and were cultured as near confluent monolayers in 100 mm culture plates within a maintenance media consisting of Complete MesenPro RS medium with growth supplement and L-glutamine obtained from Invitrogen®. The process of culturing, passage, and seeding the hADSCs is described below.
# The subculture of hADSCs was performed when cell culture reached confluence. To passage hADSCs, the following procedure is used: i) aspirate the Complete MesenPRO RS medium from the cells; ii) rinse the surface area of the cell layer with Dulbecco's phosphate buffered saline (DBPS) buffer by adding the DPBS to the side of the vessel opposite the attached cell layer and rocking the vessel back and forth several times; iii) remove the DPBS by aspiration and discard; iv) detach the cells by adding a sufficient volume of pre-warmed trypsin-EDTA solution without phenol red to cover the cell layer; v) incubate at 37° C. for approximately 7 minutes; vi) observe the cells under a microscope to determine if additional incubation is needed; vii) add 3 mL of the maintenance media to the plate, mix the cell suspension, add the suspension to a 15 mL centrifuge tube and centrifuge at 210 g for 5 minutes; viii) determine the total number of cells and percent viability using a hemacytometer; ix) add Complete MesenPRO RS medium to each vessel so that the final culture volume is 0.2 mL-0.5 mL per cm^2; x) seed the cells by adding the appropriate volume of cells to each vessel and incubate at 37° C., 5% CO2 and 90% humidity; and xi) three or four days after seeding, completely remove the medium and replace with an equal volume of Complete MesenPRO RS medium.
# Before seeding the passaged hADSCs on fresh culture plates, the surfaces of the culture ware are washed with sterile DPBS solution three times, followed by multiple rinses with sterile water. The first layer of coating is poly-L-ornithine. […]
compound,measurement,setting,value
CC(C)CCC[C@@H](C)[C@H]1CC[C@H]2[C@@H]3CC=C4C[C@@H](O)CC[C@]4(C)[C@H]3CC[C@]12C [cholesterol],morphology of hNSCs observed,hNSCs; 25 μM,"shrinking cellular bodies, projecting neurities and were developing dendrites"
same,neurogenesis of hNSCs compared to no treatment,"hNSCs; 25 μM, serum-free differentiation medium",dramatically promoted neurogenesis
same,length of neurite outgrowth,hNSCs; cholesterol 25 μM compared with DHA at 20 μM,comparable to DHA
same,effect to enhance neurogenesis (neuronal morphology displayed by the hADSCs),"hADSCs; 5 μM, among the concentrations tested, phase contrast microscopy at 24, 48 and 96 hours, FIG. 2B",strongest effect to enhance neurogenesis
same,neurogenesis compared to the negative control,hADSCs; addition of cholesterol vs no treatment,promoted neurogenesis when compared to the negative control
same,morphology of treated hADSCs (outgrowth),"hADSCs; hADSCs treated with cholesterol, FIG. 2B",long outgrowth with some branching
